Results published in patent publication US10538516B2, “Oxadiazole derivative and pharmaceutical containing same” (National Center for Geriatrics and Gerontology, priority 2015, dated 2020).

Each compound was assayed against T1, GAβ-dependent amyloid fibril formation (Human Aβ1-40 + GM1-containing liposome) (Homo sapiens, UniProt P05067) (assay: Thioflavin T (ThT) assay of GAβ-dependent amyloid fibril formation (Aβ1-40 with GM1-containing liposome)). Details: @25 μM; read-out: ThT Inhibitory activity (% inhibition).
T1 construct: Human Aβ1-40 (cat. #4307-v, prepared by Peptide Institute); purchased Peptide Institute 4307-v
T1 sequence (P05067 672-711 limits assumed): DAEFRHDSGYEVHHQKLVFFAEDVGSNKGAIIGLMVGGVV
Format: biochemical
Method: <3. Evaluation of the Compounds Based on the Inhibitory Activity Against Amyloid Fibril Formation in Thioflabin T (ThT) Assay>
Inhibitory activity against GAβ-dependent amyloid fibril formation of the above compounds 1 to 133 and 142 to 267 were evaluated in ThT assay.
(1) Preparation of Aβ Solution
Human Aβ1-40 (cat. #4307-v, prepared by Peptide Institute) was dissolved in a 0.02% ammonia solution (400 μM), and the mixture was treated in an ultracentrifuge (S110AT rotor, Hitachi) at 100,000 rpm for 3 hours. Approximately two-thirds of the upper layer of the supernatant was recovered and protein concentration was measured. The Aβ solution was aliquoted and stored at −80° C. until use, was melted immediately before use, and was diluted to 75 μM using phosphate buffer (PBS: cat. #10010, manufactured by Life Technologies).
(2) Preparation of GM1-Containing Liposome
Using a mixed solution of chloroform/methanol (1:1) as a solvent, a mixed solution of 100 mM each of cholesterol and sphingomyelin (both manufactured by Sigma-Aldrich) was prepared. To this mixed solution, GM 1 (cat. #1061, manufactured by Matreya Co.) was dissolved to make a solution of 50 mM concentration. This lipid mixed solution was aliquoted into glass test tubes and stored at −20° C. until use, was melted before use, was mixed with chloroform/methanol mixture (1:1) and mixed, and then the solvent was removed by applying nitrogen gas to the suspension. The dried lipid mixture was resuspended in PBS to be a GM1 concentration of 2.5 mM, and frozen and thawed 5 times with liquid nitrogen. The lipid suspension was centrifuged at 15,000 rpm for 10 minutes and the precipitate was resuspended in PBS to be a GM1 concentration of 2.5 mM. Using an ultrasonic crusher (XL-2000, MISONIX Co., Ltd.) equipped with a microchip, ultrasonic treatment was repeated on ice for 10 seconds until the suspension became transparent, and GM1-containing liposome was prepared. Immediately prior to use, PBS was added and diluted to a GM 1 concentration of 75 μM.
(3) Preparation of Compound Solution
Compounds 1 to 133 and 142 to 267 were prepared as 10 mM and 2 mM solution in DMSO, respectively. And each solution was diluted to 75 μM or 15 μM with PBS immediately prior to use.
(4) GAβ-Dependent Amyloid Fibril Formation
To a 96-well microplate, 5 μl each of the 75 μM Aβ solution prepared above (1), the compound solution prepared in (3) or 0.75% DMSO was mixed and incubated at room temperature for 10 minutes. Then, 5 μl each of 750 μM GM1-containing liposome prepared in (2) was added to each well and incubated at 37° C. for 18 hours.
ThT (manufactured by Sigma-Aldrich) was adjusted to 5 μM using 50 mM glycine-NaOH buffer (pH 8.5). Immediately before measurement, 10 μl from each well of (4) was transferred to a 96-well black plate. 50 μl of 5 μM ThT solution was added from each injector to each well using a multi-plate reader (ARVO-HTS, manufactured by Perkin Elmer), and then the optimal fluorescence of ThT bound to amyloid fiber (excitation wavelength 430 nm, fluorescence wavelength 490 nm) was measured.
The fluorescence intensity of ThT indicates the degree of amyloid fibrils formation. By calculating the ratio of the ThT fluorescence intensity between addition of the compound and without addition of the compound, the inhibition rate against amyloid fibril formation by the compound was calculated.
O=C(N[C@@H](CO)c1nnc(-c2ccc(OC(F)(F)F)cc2)o1)c1ccc(Cl)cc1 [Compound 104, (S)-4-chloro-N-(2-hydroxy-1-{5-[4-(trifluoromethoxy)phenyl]-1,3,4-oxadiazol-2-yl}ethyl)benzamide] showed an inhibition at 25 µM of 75%.

Same assay, conditions: inhibition rate against amyloid fibril formation, final concentration of the compound 25 μM; 25 µM
With O=C(c1ccc(Cl)cc1)N1C[C@H](O)C[C@H]1c1nc(-c2ccc(OC(F)(F)F)cc2)no1 [Compound 82, (4-chlorophenyl) ((2S,4R)-4-hydroxy-2-[3-{4-(trifluoro-methoxy)phenyl}-1,2,4-oxadiazol-5-yl]pyrrolidin-1-yl)methanone] the “Inhibitory activity ABC evaluation” value was “C (the inhibition rate of less than 40% was evaluated as C)”.

Same assay, conditions: inhibition rate against amyloid fibril formation, final concentration of the compound 25 μM; read-out: Inhibitory activity ABC evaluation
For CNC(=O)C[C@H](NC(=O)c1ccc(Cl)cc1)c1nc(-c2ccc(OC(F)(F)F)cc2)no1 [Compound 88, (S)-4-chloro-N-(3-(methylamino)-3-oxo-1-[3-{4-(trifluoromethoxy)phenyl}-1,2,4-oxadiazol-5-yl]propyl) benzamide], the inhibition at 25 µM was under 40%.
Compound NC[C@H](NC(=O)c1ccccc1)c1nc(-c2ccc(OC(F)(F)F)cc2)no1 [Compound 149, N-[(1S)-2-amino-1-{3-[4-(trifluoromethoxy)phenyl]-1,2,4-oxa-diazol-5-yl}ethyl] benzamide] has an inhibition at 25 µM of under 40%.
In the case of O=C(N[C@@H](CO)c1nc(-c2c[nH]c3ccc(F)cc23)no1)c1ccc(F)cc1 [Compound 234], the inhibition at 25 µM is reported as 40 to 80%.
O=C(N[C@@H](CO)c1nc(-c2ccc(C(F)(F)F)cc2)no1)c1cc(F)cc(F)c1 [Compound 196, 3,5-difluoro-N-[(1S)-2-hydroxy-1-{3-[4-(trifluoromethyl)phenyl]-1,2,4-oxadiazol-5-yl}ethyl]benzamide] showed an inhibition at 25 µM of over 80%.
Compound Oc1ccc(-c2noc(C(O)Cc3c[nH]c4ccccc34)n2)cc1 (centres unmarked) [Compound 89, 4-[5-{1-hydroxy-2-(1H-indol-3-yl)ethyl}-1,2,4-oxadiazol-3-yl]phenol] has an inhibition at 25 µM of 40 to 80%.
COCCCNC(=O)c1ccc(-c2noc([C@H](CO)NC(=O)c3ccccc3)n2)cc1 [Compound 148, 4-[5-[(1S)-2-hydroxy-1-(phenylformamido)ethyl]-1,2,4-oxa-diazol-3-yl)-N-(3-methoxypropyl) benzamide] was tested, and the inhibition at 25 µM was 40 to 80%.
With CN(C)c1ccc(-c2noc([C@H](CO)NC(=O)c3ccccc3)n2)cc1 [Compound 150, N-[(1S)-1-{3-[4-(dimethylamino)phenyl]-1,2,4-oxadiazol-5-yl}-2-hydroxyethyl] benzamide] the inhibition at 25 µM was over 80%.
For CN(C(=O)c1ccc(Cl)cc1)C(C)(C)c1nc(-c2ccc(OC(F)(F)F)cc2)no1 [Compound 21, 4-chloro-N-methyl-N-(2-{3-[4-(trifluoromethoxy)phenyl]-1,2,4-oxadiazole-5-yl}propan-2-yl)benzamide], the inhibition at 25 µM was under 40%.
Work on O=C(N[C@@H](CO)c1nc(-c2ccc3cc[nH]c3c2)no1)c1ccc(F)cc1 [Compound 250, 4-fluoro-N-[(1S)-2-hydroxy-1-[3-(1H-indol-6-yl)-1,2,4-oxadiazol-5-yl]ethyl]benzamide] yielded an inhibition at 25 µM of 40 to 80%.
O=C(N[C@@H](CO)c1nnc(-c2ccc(OC(F)(F)F)cc2)o1)c1ccc(Cl)cc1 [Compound 104, (S)-4-chloro-N-(2-hydroxy-1-{5-[4-(trifluoromethoxy)phenyl]-1,3,4-oxadiazol-2-yl}ethyl)benzamide] showed an inhibition at 25 µM of 40 to 80%.
Compound O=C(Cc1ccc(F)cc1)NC(CO)c1nc(-c2ccc(C(F)(F)F)cc2)no1 (centres unmarked) [Compound 187, 2-(4-fluorophenyl)-N-(2-hydroxy-1-{3-[4-(trifluoromethyl)phenyl]-1,2,4-oxadiazol-5-yl}ethyl)acetamide] has an inhibition at 25 µM of 40 to 80%.
Work on CC(C)(NC(=O)c1ccc(Cl)cc1)c1nc(-c2ccc(OC(F)(F)F)cc2)no1 [Compound 20, 4-chloro-N-(2-[3-{4-(trifluoromethoxy)phenyl}-1,2,4-oxadiazol-5-yl]propan-2-yl)benzamide] yielded an inhibition at 25 µM of 40 to 80%.
For O=C(N[C@@H](CO)c1nc(-c2cc(F)cc(F)c2)no1)c1ccc(F)cc1 [Compound 218, N-[(1S)-1-[3-[3,5-difluorophenyl)-1,2,4-oxadiazol-5-yl]-2-hydroxyethyl]-4-fluorobenzamide], the inhibition at 25 µM was 40 to 80%.
N[C@H](Cc1c[nH]c2ccccc12)c1nnc(-c2ccc(OC(F)(F)F)cc2)o1 [Compound 114, (R)-2-(1H-indol-3-yl)-1-(5-(4-(trifluoro-methoxy)phenyl)-1,3,4-oxadiazol-2-yl) ethan-1-amine] was tested, and the inhibition at 25 µM was over 80%.
O=C(NC(CO)(CO)c1nc(-c2ccc(OC(F)(F)F)cc2)no1)c1ccc(Cl)cc1 [Compound 102, 4-chloro-N-(1,3-dihydroxy-2-{3-[4-(trifluoromethoxy)phenyl]-1,2,4-oxadiazol-5-yl}propan-2-yl)benzamide] showed an inhibition at 25 µM of 40 to 80%.
With O=C1C[C@@H](c2nc(-c3ccc(OC(F)(F)F)cc3)no2)N(C(=O)c2ccc(Cl)cc2)C1 [Compound 57, (S)-1-(4-chlorobenzoyl)-5-{3-[4-(trifluoromethoxy)phenyl]-1,2,4-oxadiazol-5-yl}pyrrolidin-3-one] the inhibition at 25 µM was under 40%.
Compound O=C(NC(CO)c1nc(-c2ccc(C(F)(F)F)cc2)no1)c1cccc2cc[nH]c12 (centres unmarked) [Compound 184, N-(2-hydroxy-1-{3-[4-(trifluoromethyl)phenyl]-1,2,4-oxadiazol-5-yl}ethyl)-1H-indole-7-carboxamide] has an inhibition at 25 µM of 40 to 80%.
O=C(N[C@@H](CO)c1nc(-c2ccc(Cl)[nH]2)no1)c1ccc(F)cc1 [Compound 251, N-[(1S)-1-[3-(5-chloro-1H-pyrrol-2-yl)-1,2,4-oxadiazol-5-yl]-2-hydroxyethyl]-4-fluorobenzamide] gave an inhibition at 25 µM of 40 to 80%.
O=C(N[C@@H](CO)c1nc(-c2c[nH]c3ccc(Br)cc23)no1)c1ccc(F)cc1 [Compound 247, N-[(1S)-1-[3-(5-bromo-1H-indol-3-yl)-1,2,4-oxadiazol-5-yl]-2-hydroxyethyl]-4-fluorobenzamide] was tested, and the inhibition at 25 µM was 40 to 80%.
In the case of O=C1CC(c2nc(-c3ccc(OC(F)F)cc3)no2)CN1c1ccc(Cl)cc1 (centres unmarked) [Compound 52, 1-(4-chlorophenyl)-4-[3-{4-(difluoro-methoxy)phenyl}-1,2,4-oxadiazol-5-yl]pyrrolidin-2-one], the inhibition at 25 µM is reported as 40 to 80%.
With NC(Cc1ccc(O)cc1)c1nc(-c2ccc(OC(F)(F)F)cc2)no1 (centres unmarked) [Compound 38, 4-(2-amino-2-[3-{4-(trifluoromethoxy)phenyl}-1,2,4-oxadiazol-5-yl]ethyl)phenol] the inhibition at 25 µM was 40 to 80%.
O=C(N[C@@H](CO)c1nc(-c2ccc3c(C(=O)C(F)(F)F)c[nH]c3c2)no1)c1ccc(F)cc1 [Compound 256, 4-fluoro-N-[(1S)-2-hydroxy-1-{3-[3-(2,2,2-trifluoroacetyl)-1H-indol-6-yl]-1,2,4-oxadiazol-5-yl}ethyl] benzamide] was tested, and the inhibition at 25 µM was 40 to 80%.
CCCN(C(=O)CCc1nc(-c2ccc(O)cc2)no1)c1cccc(Cl)c1 [Compound 19, N-(3-chlorophenyl)-3-{3-(4-hydroxyphenyl)-1,2,4-oxadiazol-5-yl}-N-propylpropanamide] showed an inhibition at 25 µM of 40 to 80%.
For O=C(NC1(c2nc(-c3ccc(OC(F)(F)F)cc3)no2)CCCC1)c1cccc(Cl)c1 [Compound 35, 3-chloro-N-(1-[3-{4-(trifluoromethoxy)phenyl}-1,2,4-oxadiazol-5-yl]cyclopentyl) benzamide], the inhibition at 25 µM was under 40%.
For O=C(N[C@@H](CO)c1nc(-c2ccc(OC(F)(F)F)cc2)no1)c1cccc(F)c1 [Compound 94, (S)-3-fluoro-N-(2-hydroxy-1-[3-{4-(trifluoromethoxy)phenyl}-1,2,4-oxadiazol-5-yl]ethyl)benzamide], the inhibition at 25 µM was over 80%.
Compound O=C(N[C@@H](CO)c1nc(-c2n[nH]c3ccccc23)no1)c1ccc(F)cc1 [Compound 265, 4-fluoro-N-[(1S)-2-hydroxy-1-[3-(1H-indazol-3-yl)-1,2,4-oxadiazol-5-yl]ethyl] benzamide] has an inhibition at 25 µM of 40 to 80%.
Compound COc1ccc(-c2noc(C3CC(=O)N(c4ccc(Cl)cc4)C3)n2)cc1 (centres unmarked) [Compound 24, 1-(4-chlorophenyl)-4-{3-(4-methoxyphenyl)-1,2,4-oxadiazol-5-yl}pyrrolidin-2-one] has an inhibition at 25 µM of 40 to 80%.
